Assay results from patent US20110217301A1, “METHODS FOR TREATING OR SCREENING FOR COMPOUNDS FOR THE TREATMENT OF SEPSIS” (priority 2009, published 2011).
Where a SMILES comes first, the peptide text is derived from it. Bridges are numbered along the chain shown (N, C = ends). [ ]: non-standard residue; d: D form. hArg = N=C(N)NCCCC[C@H](N)C(=O)O; Mpa = O=C(O)CCS

Columns and labels:
[1] = adults admitted to the ICU already receiving aspirin, clopidogrel or a combination; cited from earlier work
other integrins = conditions: binds specifically to GPIIb/IIIa; cited from earlier work
splenocytes = test: Ex vivo septic platelet-splenocyte co-incubation with anti-aggregatory platelet pretreatment; apoptosis by flow cytometry (TUNEL, pan-caspase FLICA); format: cell-based, mouse
Experimental: Non-septic wild type spleens were firmly pressed between two glass slides to express splenocytes, which were isolated by centrifugation through Ficoll-Paque™ Plus (GE Healthcare Bio-Sciences Corporation, Piscataway, N.J.). Splenocyte concentrations were measured and standardized using a manual hemocytometer and co-incubated ex vivo with platelets (from septic or healthy control mice) for 90 minutes at 37° C. and 5% CO2 in complete Dulbecco's Modified Eagle Medium (DMEM) (Invitrogen/GIBCO, Carlsbad, Calif.). For some experiments, a 0.4 μm semi-permeable membrane (Corning Inc., Corning, N.Y.) was used to physically separate platelets from splenocytes.
Splenocyte apoptosis in each experimental condition was quantified in cell suspensions by flow cytometry on a FACSCalibur™ (Becton, Dickinson and Company, San Jose, Calif.) and in tissue sections by immunohistochemistry on a Nikon Eclipse E 800 Microscope (Nikon Instruments Inc., Melville, N.Y.) with a Spot RT Slider Camera (Diagnostic Instruments Inc., Sterling Heights, Mich.).
Splenocyte suspension apoptosis was identified using FlowTACS™ (Trevigen, Gaithersburg, Md.), a TUNEL-based assay for detection of DNA fragmentation. Positive controls were generated with staurosporine (Sigma Life Sciences, St Louis, Mo.). CD4+ fractions were identified by fluorophore-labeled antibody staining (clone L3T4; eBiosciences, San Diego, Calif.). We used a Sulforhodamine FLICA-Apoptosis Detection Kit Pan-Caspase Assay (Immunochemistry Technologies, Bloomington, Minn.) to measure activated caspases in apoptotic cells. Immunohistochemistry was performed on frozen heart, lung, kidney, spleen, and liver sections (4-7 μm) stained with the TUNEL-based TACK® 2 TdT In Situ Apoptosis Detection Kit (Trevigen, Gaithersburg, Md., USA) according to the manufacturer's instructions.

granzyme B = test: Flow cytometry of intracellular granzyme B in CD61+ platelets; format: cell-based, mouse; conditions: additional platelet activation with TNFα; data not shown
Description: To determine if granzyme B mRNA up-regulation translates to increased granzyme B protein expression, additional citrated whole blood was collected from septic and control mice. It was fixed with 1% paraformaldehyde, permeabilized, and intracellularly stained with anti-granzyme B (clone 16G6; eBioscience, San Diego, Calif., USA) using appropriate isotype and negative (unlabeled) controls. Flow cytometry data were generated on a FACSCalibur™ System (BD Biosciences, San Jose, Calif., USA), gating on CD61^+ (clone 2C9.G2; BD) platelets, and analyzed using FlowJo 7.2 (Tree Star, Inc., Ashland, Oreg., USA).

CD4+ splenocytes = test: Co-incubation of CD4+ splenocytes with platelets with or without recombinant TNFα pre-treatment; apoptosis by TiterTACS; format: cell-based, mouse
Experimental: CD4^+ splenocytes from healthy control mice were co-incubated with platelets isolated from control or septic mice for 90 minutes at 37° C. and 5% CO2 with or without platelet pre-treatment with 10 ng/mL of recombinant TNFα (Sigma-Aldrich) for 90 minutes. Splenocyte apoptosis was evaluated by TiterTACS™ (Trevigen, Gaithersburg, Md., USA), a quantitative colorimetric assay for in situ detection of DNA fragmentation. All samples were run in triplicate according to the manufacturer's protocol with data normalized to negative and nuclease-induced positive controls.
Our finding of granzyme B in platelets from septic mice and humans caused us to hypothesize that platelets could be lymphotoxic in this scenario. To study this question, platelets from mice 18 hours status post CLP were co-incubated with CD4^+ splenocytes isolated from healthy control mice. Platelets from septic wild-type (i.e. C57BL6) mice induced marked splenocyte apoptosis compared to platelets from sham wild-type mice (rate of apoptosis=26.0±3.4 versus 3.9±3.4%; p=0.007). (FIG. 4) This co-incubation experiment was repeated with platelets from septic granzyme B null (−/−) mice (i.e. B6.129S2-Gzmb^tmlLey). In this case, there was a complete lack of induced splenocyte apoptosis by septic platelets. […] (FIG. 4)

[2] = molecular target: plasma membrane glycoprotein GPIIb/IIIa (mouse) (UniProt Q9QUM0); test: cell-based or functional assay
Chain of UniProt Q9QUM0 (Q9QUM0 32-1033, chain 1 of 2): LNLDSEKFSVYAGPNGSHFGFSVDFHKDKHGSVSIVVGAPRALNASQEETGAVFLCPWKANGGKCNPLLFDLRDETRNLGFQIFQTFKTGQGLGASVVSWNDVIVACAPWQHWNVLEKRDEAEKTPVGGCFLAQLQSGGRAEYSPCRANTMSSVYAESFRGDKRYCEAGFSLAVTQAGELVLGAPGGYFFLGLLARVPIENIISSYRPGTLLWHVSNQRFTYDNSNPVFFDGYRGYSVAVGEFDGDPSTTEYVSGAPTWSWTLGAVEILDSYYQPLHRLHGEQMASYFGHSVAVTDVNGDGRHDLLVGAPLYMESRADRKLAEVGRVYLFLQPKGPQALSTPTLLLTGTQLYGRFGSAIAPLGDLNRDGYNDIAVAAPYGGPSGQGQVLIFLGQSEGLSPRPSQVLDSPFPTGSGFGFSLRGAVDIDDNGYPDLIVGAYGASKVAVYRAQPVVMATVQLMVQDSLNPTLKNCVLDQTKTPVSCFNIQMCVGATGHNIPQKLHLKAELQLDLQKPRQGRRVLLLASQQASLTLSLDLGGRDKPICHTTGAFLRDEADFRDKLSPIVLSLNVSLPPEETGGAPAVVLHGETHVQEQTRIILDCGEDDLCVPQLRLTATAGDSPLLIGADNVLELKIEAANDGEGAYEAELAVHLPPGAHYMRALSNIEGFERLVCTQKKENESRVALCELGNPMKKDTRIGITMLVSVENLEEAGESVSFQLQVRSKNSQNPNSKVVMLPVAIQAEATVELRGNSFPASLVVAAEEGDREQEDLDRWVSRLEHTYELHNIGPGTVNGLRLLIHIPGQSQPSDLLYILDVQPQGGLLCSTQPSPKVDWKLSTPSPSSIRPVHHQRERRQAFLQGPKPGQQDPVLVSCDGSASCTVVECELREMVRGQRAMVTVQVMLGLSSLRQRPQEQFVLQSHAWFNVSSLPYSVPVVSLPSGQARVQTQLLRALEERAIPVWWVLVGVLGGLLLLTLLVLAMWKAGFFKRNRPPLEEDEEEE
Chain of UniProt Q9QUM0 (O54890 26-787, chain 2 of 2, further chain): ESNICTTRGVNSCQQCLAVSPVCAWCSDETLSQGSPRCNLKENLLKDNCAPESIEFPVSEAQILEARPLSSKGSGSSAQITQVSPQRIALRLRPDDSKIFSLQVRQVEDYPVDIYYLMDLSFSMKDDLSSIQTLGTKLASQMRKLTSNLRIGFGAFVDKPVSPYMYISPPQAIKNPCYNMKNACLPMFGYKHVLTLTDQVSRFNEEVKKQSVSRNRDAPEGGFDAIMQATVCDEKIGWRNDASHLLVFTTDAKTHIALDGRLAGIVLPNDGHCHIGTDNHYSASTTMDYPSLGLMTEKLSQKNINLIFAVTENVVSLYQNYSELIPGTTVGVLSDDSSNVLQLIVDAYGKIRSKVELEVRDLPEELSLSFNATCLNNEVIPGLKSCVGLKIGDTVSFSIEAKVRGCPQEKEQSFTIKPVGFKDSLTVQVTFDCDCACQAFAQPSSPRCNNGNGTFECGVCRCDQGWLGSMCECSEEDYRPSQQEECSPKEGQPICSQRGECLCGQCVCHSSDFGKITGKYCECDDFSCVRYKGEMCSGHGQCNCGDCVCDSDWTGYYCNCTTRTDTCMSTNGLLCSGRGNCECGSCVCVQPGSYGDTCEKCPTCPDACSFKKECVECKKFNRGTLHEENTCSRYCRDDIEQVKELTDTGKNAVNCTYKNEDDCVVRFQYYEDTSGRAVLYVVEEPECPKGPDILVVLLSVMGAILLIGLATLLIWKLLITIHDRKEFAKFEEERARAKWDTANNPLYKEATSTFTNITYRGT

[3] = eptifibatide-exposed (4 μg/mL, 15 minutes) septic wild type platelets with healthy splenocytes vs non-exposed septic platelets, mean±SEM
[4] = platelets pre-treated, compared with untreated septic platelets

Question: For `CC(=O)Oc1ccccc1C(=O)O` [aspirin], which “levels of MODS” value [1] is on record?
Answer: decreased levels of MODS

Question: And the mortality [1]?
Answer: decreased mortality

Question: For `COC(=O)[C@H](c1ccccc1Cl)N1CCc2sccc2C1` [clopidogrel], which “levels of MODS” value [1] is on record?
Answer: decreased levels of MODS

Question: What about the mortality [1] of the same compound?
Answer: decreased mortality

Question: With `N=C(N)NCCCC[C@@H]1NC(=O)CCSSC[C@@H](C(N)=O)NC(=O)[C@@H]2CCCN2C(=O)[C@H](Cc2c[nH]c3ccccc23)NC(=O)[C@H](CC(=O)O)NC(=O)CNC1=O` [eptifibatide] ([Mpa][hArg]GDWPC-NH2; disulfide 1-7) as the compound, how does the “affinity for other integrins” value (other integrins) read?
Answer: low affinity

Question: And the “reduction of splenocyte apoptosis in the CD4+ fraction” value (splenocytes; [3])?
Answer: 85±20.7 % reduction

Question: And the “reduction of splenocyte apoptosis overall” value (splenocytes; [3])?
Answer: 66.5±10.6 % reduction

Question: And the “septic platelet-induced CD4+ splenocyte apoptosis (TUNEL+ and pan-Caspase+), result in words” value (splenocytes; [4])?
Answer: significant reduction

Question: And the “septic platelet-induced splenocyte apoptosis overall (TUNEL+ and pan-Caspase+), result in words” value (splenocytes; [4])?
Answer: significant reduction

Question: Which results are given for TNFα?
Answer: intracellular granzyme B in platelets, result in words (granzyme B): did not alter; lymphotoxic capacity of platelets, result in words (CD4+ splenocytes; further platelet activation with recombinant TNFα): did not alter; rate of apoptosis (lymphotoxicity) of CD4+ splenocytes (CD4+ splenocytes; wild-type platelets further activated by TNFα (10 ng/mL, 90 minutes), p=0.88 vs non-activated control platelets): 4.5±1.3%

Question: With eptifibatide (peptide) as the compound, how does the reduction of septic platelet-induced apoptosis in the CD4+ splenocyte fraction, TUNEL+ and pan-caspase+ by flow cytometry [2] read?
Answer: 85 % reduction

Question: What about the reduction of septic platelet-induced splenocyte apoptosis (overall), TUNEL+ and pan-caspase+ by flow cytometry [2] of the same compound?
Answer: 66.5 % reduction
